Where two headings read alike, the source gives them in different places. A value given as a limit tells only on which side of the number the result lay.

A short description of data set [1]: Metabolic stability in liver microsomes. Type of data set: in vitro ADME, human. Conditions: human, human liver microsomes; 0.5 µM test substance, 0.5 mg/mL microsomes, NADPH and UDPGA, 37° C.; read-out: T½(min), stability in human liver microsomes. Here is the method:
Liver microsomes (purchased from Reed Liver Disease Research (Shanghai) Co., Ltd., product: human liver microsomes (NJT)); NADPH (purchased from Roche, Lot: 40939); UDPGA; the compounds of the present invention (test substances).
• (1) A mixed working solution of testosterone (0.5 µM) and 7-hydroxycoumarin (0.5 µM) was prepared. • (2) A mixed solution of NADPH (1 mM) and UDPGA (1 mM) was prepared, and prewarmed at 37° C. in a water bath shaker before use. • (3) Liver microsomes were thawed and diluted with a buffer. • (4) A preparation of a test substance (0.5 µM) and a solution of liver microsomes (0.5 mg/mL) were added to each well of an incubation plate. • (5) Three experimental groups were set and samples were added. Test group: the test substance was incubated with liver microsomes for 0 min, 30 min, 60 min, and 120 min in the presence of the coenzyme NADPH and UDPGA; Positive control group: testosterone (0.5 µM) and 7-hydroxycoumarin (0.5 µM) were incubated with microsomes for 0 min and 120 min in the presence of the coenzyme NADPH and UDPGA; Negative control group: the test substance was incubated with microsomes for 0 and 120 min without any coenzyme. • (6) All samples were incubated at 37° C., and pre-cooled methanol was added at each termination time (0, 15, 30, 45, 60 min, 120 min) to terminate the reaction, and the time was recorded. • (7) All samples were mixed well and centrifuged at 4000 rpm for 10 min. The supernatant was taken and measured by LC-MS/MS for the amount of the test substance remaining in the samples. Data analysis was carried out as follows: T½=0.693 /k, Clint = (0.693/T½) × (1 /(microsomal protein) × Scaling Factors), Note: k is the slope of the logarithm of the remaining amounts of compound versus time.

Data set [2] is described as follows: Pharmacokinetic assay in ICR mice (i.v. and p.o.). Type of data set: in vivo. Conditions: mouse, plasma, male ICR mice; for half-life: read-out: T½ (converted); for bioavailability: po 10 mg/kg vs iv 1 mg/kg. In short, it runs like this: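 Fasted male ICR mice (18-22 g) dosed at 1 mg/kg i.v. or 10 mg/kg p.o. in 5% DMSO/95% 30% HP-β-CD, three mice per time point. Submandibular plasma sampled up to 24 h, assayed by LC/MS/MS.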

The target in data set [3] is T1, TTK kinase (Homo sapiens, UniProt P33981).
T1 construct: purchased Invitrogen PV3792
T1 sequence (P33981 1-857): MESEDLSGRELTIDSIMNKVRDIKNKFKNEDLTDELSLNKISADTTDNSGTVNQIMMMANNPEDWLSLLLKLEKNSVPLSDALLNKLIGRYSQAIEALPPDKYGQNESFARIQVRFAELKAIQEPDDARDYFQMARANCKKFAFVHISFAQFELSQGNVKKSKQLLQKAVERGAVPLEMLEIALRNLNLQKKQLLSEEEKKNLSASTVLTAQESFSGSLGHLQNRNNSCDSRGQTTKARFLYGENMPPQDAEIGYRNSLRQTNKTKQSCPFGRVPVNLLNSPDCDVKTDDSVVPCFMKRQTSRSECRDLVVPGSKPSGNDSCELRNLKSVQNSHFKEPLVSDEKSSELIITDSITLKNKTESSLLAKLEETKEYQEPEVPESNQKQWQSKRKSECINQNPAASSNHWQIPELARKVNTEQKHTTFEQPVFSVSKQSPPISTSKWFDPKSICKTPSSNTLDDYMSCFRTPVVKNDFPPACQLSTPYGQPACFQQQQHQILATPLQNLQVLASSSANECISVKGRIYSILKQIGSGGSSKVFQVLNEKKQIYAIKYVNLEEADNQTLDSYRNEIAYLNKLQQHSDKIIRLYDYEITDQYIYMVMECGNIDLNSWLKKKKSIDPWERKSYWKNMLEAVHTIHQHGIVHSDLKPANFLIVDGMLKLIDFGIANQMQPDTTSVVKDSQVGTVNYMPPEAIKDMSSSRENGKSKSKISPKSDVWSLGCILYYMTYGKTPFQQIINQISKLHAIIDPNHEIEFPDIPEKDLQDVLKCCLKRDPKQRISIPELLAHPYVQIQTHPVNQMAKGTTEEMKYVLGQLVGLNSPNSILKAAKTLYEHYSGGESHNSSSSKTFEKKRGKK
Kind of data set: TTK kinase activity assay (ADP-Glo). Type of data set: biochemical. Conditions: initial concentration 1000 nM, 1:3, 10 dilutions; read-out: IC50 (nM), TTK kinase inhibiting activity. Here is the method:
TTK kinase was purchased from Invitrogen, Cat.#: PV3792.
• (1) 1×buffer was prepared by diluting 5×buffer into 1×buffer with ddH2O, and adding 0.05 mM DTT. • (2) The compounds of the present invention were prepared at an initial concentration of 1000 nM, and diluted by 1:3 to obtain 10 serial dilutions. • (3) The diluted compounds of the present invention were added to a 384-well plate (purchased from Greiner, product number 784075) by an Echo 550 pipetting workstation, and centrifuged at 1000 g for 1 min. • (3) A 2×TTK enzyme solution was prepared with the 1×buffer. Then, 2.5 µL of the 2× enzyme solution was added to each well, centrifuged at 1000 g for 30 s, and left at room temperature for 10 min. • (4) A 2×MBP substrate/ATP mixture was prepared with the 1×buffer.

Data set [4] has as its target T2, DNA-PK kinase (Homo sapiens, UniProt P78527).
T2 construct: purchased Promega V4107
The data set can be described thus: Inhibition assay of DNA-PK kinase (Promega kit, ADP-Glo chemiluminescence). Type of data set: biochemical. Conditions: 50 µM ATP, 37° C., 60 min; read-out: IC50 (nM), inhibitory activity on DNA-PK kinase. In short, it runs like this: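 Compounds incubated with DNA-PK at 37° C for 60 min; reaction stopped with ADP-Glo reagent (40 min, RT), then kinase detection reagent (30 min, RT). ADP formed read by luminescence against an ADP standard curve.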
For orientation: In ADP-Glo the light output rises with the ADP produced.

Regarding `Cc1cc(C#N)ccc1Nc1ncc2c(n1)n(C1CCOCC1)c(=O)n2C` [Compound 5, 3-Methyl-4-((7-methyl-8-oxo-9-(tetrahydro-2H-pyran-4-yl)-8,9-dihydro-7H-purin-2-yl)amino)benzonitrile], in data set [1], the half-life at 0.5 µM was greater than 120 min. In data set [2] (iv, 1 mg/kg), the AUC amounted to 234 ng·h/mL and the half-life is 0.333 h. Further, the bioavailability in data set [2] was determined as 99.4%. Moreover, in data set [2] (po, 10 mg/kg), the AUC came out at 2270 ng·h/mL, the Cmax turned out to be 835 ng/mL and the half-life was 3.21 h. Moreover, in data set [3], the concentration for half-maximal inhibition (IC50) came out at 1720 nM.
On to `CNC(=O)c1ccc(Nc2ncc3c(n2)n(C2CCOCC2)c(=O)n3C)c(C)c1` [Compound 27, N,3-Dimethyl-4-((7-methyl-8-oxo-9-(tetrahydro-2H-pyran-4-yl)-8,9-dihydro-7H-purin-2-yl)amino)benzamide], for which the half-inhibitory concentration (IC50) stood at 4.36 nM in data set [4] and 428 nM in data set [3]. Moreover, the half-life at 0.5 µM in data set [1] was greater than 120 min. Besides, the area under the curve (AUC) in data set [2] (iv, 1 mg/kg) is 679 ng·h/mL; in data set [2] (po, 10 mg/kg) it was 14600 ng·h/mL. The half-life was 1.48 h in data set [2] (iv, 1 mg/kg) and 2.17 h in data set [2] (po, 10 mg/kg). In addition, the bioavailability in data set [2] was 213%. For the same molecule, the peak level in data set [2] (po, 10 mg/kg) (Cmax) was 5450 ng/mL.
Consider `Cc1cc(C(N)=O)ccc1Nc1ncc2c(n1)n(C1CCOCC1)c(=O)n2C` [Compound 2, 3-Methyl-4-((7-methyl-8-oxo-9-(tetrahydro-2H-pyran-4-yl)-8,9-dihydro-7H-purin-2-yl)amino)benzamide], for which the half-life at 0.5 µM in data set [1] is greater than 120 min. Also, in data set [2] (iv, 1 mg/kg), the AUC was 265 ng·h/mL and the half-life was 0.87 h. Also, the bioavailability in data set [2] stood at 38.2%. Also, in data set [2] (po, 10 mg/kg), the AUC was 1040 ng·h/mL, the Cmax was determined as 449 ng/mL and the half-life is 1.84 h. Moreover, the IC50 in data set [3] was determined as 275 nM.
Consider `Cc1cc(C(N)=O)ncc1Nc1ncc2c(n1)n(C1CCOCC1)c(=O)n2C` [Compound 18, 4-Methyl-5-((7-methyl-8-oxo-9-(tetrahydro-2H-pyran-4-yl)-8,9-dihydro-7H-purin-2-yl)amino)picolinamide], for which the figures for the IC50 in data set [4] and in data set [3] were 2.1 nM and 387 nM, respectively. For the same molecule, the half-life at 0.5 µM in data set [1] was greater than 120 min. Also, the AUC came out at 171 ng·h/mL in data set [2] (iv, 1 mg/kg) and 1360 ng·h/mL in data set [2] (po, 10 mg/kg). For the same molecule, the half-life in data set [2] (iv, 1 mg/kg) is 0.771 h; in data set [2] (po, 10 mg/kg), 3.06 h. The bioavailability in data set [2] worked out at 78.4%. In data set [2] (po, 10 mg/kg), this molecule returned a Cmax of 312 ng/mL.
With `Cc1cc(C(N)=O)c(F)cc1Nc1ncc2c(n1)n(C1CCOCC1)c(=O)n2C` [Compound 24, 2-Fluoro-5-methyl-4-((7-methyl-8-oxo-9-(tetrahydro-2H-pyran-4-yl)-8,9-dihydro-7H-purin-2-yl)amino)benzamide], the figures for the IC50 in data set [4] and in data set [3] were 0.56 nM and 4220 nM, respectively. Moreover, in data set [1], the half-life at 0.5 µM was greater than 120 min. Further, the area under the curve (AUC) in data set [2] (iv, 1 mg/kg) amounted to 466 ng·h/mL; in data set [2] (po, 10 mg/kg), 6280 ng·h/mL. Further, the half-life in data set [2] (iv, 1 mg/kg) was 0.95 h; in data set [2] (po, 10 mg/kg), 3.73 h. Moreover, the bioavailability in data set [2] amounted to 135%. This molecule came in with a Cmax in data set [2] (po, 10 mg/kg) of 2500 ng/mL.
As to `Cc1cc(C(N)=O)c(F)cc1Nc1ncc2c(n1)n([C@H]1CC[C@H](C#N)CC1)c(=O)n2C` [Compound 79, 4-((9-(trans-4-cyanocyclohexyl)-7-methyl-8-oxo-8,9-dihydro-7H-purin-2-yl)amino)-2-fluoro-5-methylbenzamide], the IC50 in data set [4] came out at 1.86 nM. The half-life at 0.5 µM in data set [1] is greater than 120 min. Moreover, in data set [2] (iv, 1 mg/kg), the AUC amounted to 482 ng·h/mL and the half-life is 0.63 h. The bioavailability in data set [2] was determined as 100%. For the same molecule, in data set [2] (po, 10 mg/kg), the AUC came to 4440 ng·h/mL, the Cmax was found to be 2490 ng/mL and the half-life is 2.15 h.
On to `[2H]C([2H])([2H])Oc1cc(C)c(Nc2ncc3c(n2)n(C2CCOCC2)c(=O)n3C)cn1` [Compound 38, 2-((6-(methoxy-d3)-4-methylpyridin-3-yl)amino)-7-methyl-9-(tetrahydro-2H-pyran-4-yl)-7,9-dihydro-8H-purin-8-one], for which the IC50 in data set [4] was 0.47 nM. Further, the half-life at 0.5 µM in data set [1] was greater than 120 min. Further, in data set [2] (iv, 1 mg/kg), the AUC turned out to be 269 ng·h/mL and the half-life was 0.341 h. Further, the bioavailability in data set [2] turned out to be 47.7%. Moreover, in data set [2] (po, 10 mg/kg), the AUC was determined as 1310 ng·h/mL, the Cmax is 2200 ng/mL and the half-life was 1.02 h.

The AUC is concentration integrated over time. Read a low AUC as low exposure. In general, Cmax refers to the peak of the concentration-time curve. A word on the IC50: it is the concentration at which inhibition is half-maximal.
